The source of these data is patent US20120202856A1, “SUBSTITUTED BENZIMDAZOLE DERIVATIVES USEFUL AS TRPM8 RECEPTOR MODULATORS” (priority 2011, published 2012).

The structures appear in SMILES notation. Several values for one entry are separate records, joined by “and”; a condition that tells them apart may be missing. Equal values may be shown once. Where a name gives a salt, the structure may show the parent alone.

Broadly, the IC50 is the concentration at which inhibition is half-maximal.

In this assay the target is T1, canine TRPM8 (Canis lupus familiaris, UniProt Q1A7N1).
T1 construct: expressed in transfected cells
T1 sequence (Q1A7N1 1-1104): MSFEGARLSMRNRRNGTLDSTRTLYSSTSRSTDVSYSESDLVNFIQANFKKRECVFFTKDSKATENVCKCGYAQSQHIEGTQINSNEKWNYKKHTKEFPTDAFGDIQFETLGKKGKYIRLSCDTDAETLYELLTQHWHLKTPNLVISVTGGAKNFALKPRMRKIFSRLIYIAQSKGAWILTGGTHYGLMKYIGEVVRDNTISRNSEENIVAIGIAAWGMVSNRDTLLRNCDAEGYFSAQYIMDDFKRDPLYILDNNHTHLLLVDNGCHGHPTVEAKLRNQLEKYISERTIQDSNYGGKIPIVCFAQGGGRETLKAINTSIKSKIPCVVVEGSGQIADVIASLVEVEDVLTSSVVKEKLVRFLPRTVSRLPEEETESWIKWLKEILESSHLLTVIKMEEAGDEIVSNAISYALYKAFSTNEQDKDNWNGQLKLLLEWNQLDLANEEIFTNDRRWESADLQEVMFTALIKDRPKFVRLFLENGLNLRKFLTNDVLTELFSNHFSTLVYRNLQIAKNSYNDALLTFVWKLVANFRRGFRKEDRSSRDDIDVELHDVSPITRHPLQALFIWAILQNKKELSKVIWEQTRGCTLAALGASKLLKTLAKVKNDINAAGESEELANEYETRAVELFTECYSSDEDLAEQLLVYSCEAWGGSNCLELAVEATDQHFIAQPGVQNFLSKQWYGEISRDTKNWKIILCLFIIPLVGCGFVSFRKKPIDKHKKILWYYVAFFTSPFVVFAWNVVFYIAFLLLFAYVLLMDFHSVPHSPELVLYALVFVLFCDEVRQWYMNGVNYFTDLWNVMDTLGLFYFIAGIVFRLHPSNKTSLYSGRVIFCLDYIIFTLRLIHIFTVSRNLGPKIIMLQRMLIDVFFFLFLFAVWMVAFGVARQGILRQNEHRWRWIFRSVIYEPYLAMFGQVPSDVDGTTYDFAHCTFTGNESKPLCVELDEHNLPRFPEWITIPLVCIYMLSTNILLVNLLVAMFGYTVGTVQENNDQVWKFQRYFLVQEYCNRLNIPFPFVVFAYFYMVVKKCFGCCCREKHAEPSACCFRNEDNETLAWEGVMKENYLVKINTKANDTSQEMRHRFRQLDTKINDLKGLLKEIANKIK
Nature of the assay: In Vitro Canine TRPM8 Functional Assay (intracellular Ca2+ fluorescence, icilin activation, HEK293 cells). It is filed as cell-based. The note with it: for IC50: HEK293 cells expressing canine TRPM8, icilin activation, individually measured values (batches/salt forms), read-out: IC50 (nM), in vitro TRP M8 Activity; for inhibition at 0.2 µM: HEK293, 0.2 μM test compound, read-out: % Inh (%) @0.2 μM, in vitro TRP M8 Activity. The procedure, abridged:
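HEK293 cells expressing canine TRPM8 loaded with Calcium 3 dye, then stimulated with icilin; intracellular Ca2+ rise read on FLIPR or FDSS. Peak fluorescence minus basal normalized to percent maximal response; IC50 from sigmoidal nonlinear regression of quadruplicate wells.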

Consider `CC(C)(C)Cc1cc(-c2nc3ccc(-c4ccccc4OC(F)(F)F)cc3[nH]2)on1` [Compound 21, 2-[3-(2,2-Dimethylpropyl)-isoxazol-5-yl]-6-(2-trifluoromethoxyphenyl)-1H-benzimidazole hydrochloride], for which the IC50 was found to be 29 nM.
As for `Cc1oc(-c2nc3cc(-c4ccccc4Cl)cc(C(F)(F)F)c3[nH]2)nc1C(C)(C)C` [Compound 196, 2-(4-tert-Butyl-5-methyl-oxazol-2-yl)-5-(2-chloro-phenyl)-7-trifluoromethyl-1H-benzimidazole hydrochloride], the inhibition at 0.2 µM (individually measured values) was 39%.
For `Cn1nc(C(F)(F)F)cc1-c1nc2cc(-c3ccccc3C(F)(F)F)ccc2[nH]1` [Compound 40, 2-(5-Trifluoromethyl-2-methyl-2H-pyrazol-3-yl)-5-(2-trifluoromethylphenyl)-1H-benzimidazole sodium salt], the IC50 was found to be 81.5 nM.
With `Cc1oc(C(C)(C)C)nc1-c1nc2cc(-c3ccccc3Cl)cc(C(F)(F)F)c2[nH]1` [Compound 155, 2-(2-tert-Butyl-5-methyl-oxazol-4-yl)-5-(2-chloro-phenyl)-7-trifluoromethyl-1H-benzimidazole hydrochloride], the inhibition at 0.2 µM (individually measured values) came out at 59%.
`COc1cccc(OC)c1-c1ccc2[nH]c(-c3cc(C(C)(C)C)nn3C)nc2c1` [Compound 54, 2-(5-tert-Butyl-2-methyl-2H-pyrazol-3-yl)-5-(2,6-dimethoxy-phenyl)-1H-benzimidazole trifluoroacetic acid salt]: the IC50 amounted to 3.1 nM.
Still for that read-out and setting: next, `CC(C)(C)c1cc(-c2nc3cc(-c4ccccc4OC(F)(F)F)ccc3[nH]2)n(Cc2ccccc2)n1` [Compound 49, 2-(5-tert-Butyl-2-benzyl-2H-pyrazol-3-yl)-5-(2-trifluoromethoxyphenyl)-1H-benzimidazole sodium salt]: 42.3 nM.
As to `Cc1nc(C(C)(C)C)oc1-c1nc2cc(-c3ccccc3)cc(C(F)(F)F)c2[nH]1` [Compound 178, 2-(2-tert-Butyl-4-methyl-oxazol-5-yl)-5-phenyl-7-trifluoromethyl-1H-benzimidazole hydrochloride], the inhibition at 0.2 µM (individually measured values) came out at 17%.
Consider `CC(C)(C)c1cc(-c2nc3cc(-c4ccccc4C#N)ccc3[nH]2)on1` [Compound 69, 2-[2-(3-tert-Butyl-isoxazol-5-yl)-1H-benzimidazol-5-yl]-benzonitrile trifluoroacetic acid salt], for which the IC50 was determined as 20.5 nM.
As to `FC(F)(F)c1ccccc1-c1ccc2[nH]c(-c3cc(C4CCCC4)no3)nc2c1` [Compound 92, 2-(3-Cyclopentylisoxazol-5-yl)-5-(2-trifluoromethylphenyl)-1H-benzimidazole], the IC50 was found to be 24.5 nM.
Turning to `CC(C)(C)c1cc(-c2nc3cc(-c4ccccc4F)ccc3[nH]2)on1` [Compound 66, 2-(3-tert-Butyl-isoxazol-5-yl)-5-(2-fluoro-phenyl)-1H-benzimidazole trifluoroacetic acid salt], the IC50 was 24 nM and 35.7 nM.
As to `CC(C)(C)c1cc(-c2nc3cc(-c4c(F)cccc4C(F)(F)F)cc(C(F)(F)F)c3[nH]2)on1` [Compound 144, 2-(3-tert-Butyl-isoxazol-5-yl)-5-(2-fluoro-6-trifluoromethyl-phenyl)-7-trifluoromethyl-1H-benzimidazole hydrochloride], the IC50 is 3.9 nM and 4 nM. Besides, under “individually measured values”, the inhibition at 0.2 µM stood at 99%.
As to `CCCc1cc(-c2nc3ccc(-c4ccccc4C(F)(F)F)cc3[nH]2)on1` [Compound 18, 2-(3-Propylisoxazol-5-yl)-6-(2-trifluoromethylphenyl)-1H-benzimidazole hydrochloride], the IC50 turned out to be 27 nM.
Turning to `Cc1c(C(C)(C)C)nn(C)c1-c1nc2cc(-c3c(F)cccc3C(F)(F)F)cc(Cl)c2[nH]1` [Compound 137, 2-(5-tert-Butyl-2,4-dimethyl-2H-pyrazol-3-yl)-7-chloro-5-(2-fluoro-6-trifluoromethyl-phenyl)-1H-benzimidazole hydrochloride], the IC50 is 3 nM and 4.7 nM. Further, the inhibition at 0.2 µM (individually measured values) came to 99%.
Turning to `FC(F)(F)Oc1ccccc1-c1ccc2nc(-c3cc(C4CCCCC4)no3)[nH]c2c1` [Compound 25, 2-(3-Cyclohexylisoxazol-5-yl)-6-(2-trifluoromethoxyphenyl)-1H-benzimidazole hydrochloride], the inhibition at 0.2 µM (individually measured values) amounted to 63%.
With `CC(CO)n1nc(C(C)(C)C)cc1-c1nc2cc(-c3ccccc3C(F)(F)F)ccc2[nH]1` (centres unmarked) [Compound 101, 2-{3-tert-Butyl-5-[5-(2-trifluoromethylphenyl)-1H-benzimidazol-2-yl]-pyrazol-1-yl}-propan-1-ol hydrochloride], the inhibition at 0.2 µM (individually measured values) came out at 33%.
On to `Cn1nc(C2CCC2)cc1-c1nc2cc(-c3ccccc3Cl)ccc2[nH]1` [Compound 39, 2-(5-Cyclobutyl-2-methyl-2H-pyrazol-3-yl)-5-(2-chlorophenyl)-1H-benzimidazole sodium salt], for which the IC50 was 20 nM.
The same measure, in the same setting: next, `COc1cccc(OC)c1-c1ccc2[nH]c(-c3cc(C(C)(C)C)no3)nc2c1` [Compound 63, 2-(3-tert-Butyl-isoxazol-5-yl)-5-(2,6-dimethoxy-phenyl)-1H-benzimidazole trifluoroacetic acid salt]: 5.5 nM.
For `Cc1nc(C(C)(C)C)oc1-c1nc2cc(-c3ccccc3)cc(Cl)c2[nH]1` [Compound 180, 2-(2-tert-Butyl-4-methyl-oxazol-5-yl)-7-chloro-5-phenyl-1H-benzimidazole hydrochloride], the inhibition at 0.2 µM (individually measured values) was 6%.
As for `Cn1nc(C(C)(C)C)c(C#N)c1-c1nc2cc(-c3ccccc3F)cc(C(F)(F)F)c2[n-]1.[Na+]` [Compound 147], the “% Inh (%) @0.2 μM, in vitro TRP M8 Activity” value (0.2 μM test compound, individually measured values, sodium salt, 0.2 µM) was found to be 98%.
For the compound `CC(C)(C)Cc1cc(-c2nc3ccc(-c4ccccc4C(F)(F)F)cc3[nH]2)on1` [Compound 20, 2-[3-(2,2-Dimethylpropyl)isoxazol-5-yl]-6-(2-trifluoromethylphenyl)-1H-benzimidazole hydrochloride], the IC50 stood at 19 nM.
As to `Cc1c(C(C)(C)C)nn(C)c1-c1nc2cc(-c3ccccc3Cl)ccc2[nH]1` [Compound 94, 2-(5-tert-Butyl-2,4-dimethyl-2H-pyrazol-3-yl)-5-(2-chloro-phenyl)-1H-benzimidazole hydrochloride], the IC50 came to 4.5 nM.
For `CC(C)(C)c1cc(-c2nc3cc(-c4ccccc4Cl)cc(C(F)(F)F)c3[nH]2)on1` [Compound 141, 2-(3-tert-Butyl-isoxazol-5-yl)-5-(2-chloro-phenyl)-7-trifluoromethyl-1H-benzimidazole hydrochloride], the IC50 was 5.4 nM and 8.7 nM. Further, the inhibition at 0.2 µM (individually measured values) was 99%.
As to `Cc1c(C(C)(C)C)nn(C)c1-c1nc2cc(-c3c(F)cccc3F)ccc2[nH]1` [Compound 95, 2-(5-tert-Butyl-2,4-dimethyl-2H-pyrazol-3-yl)-5-(2,6-difluoro-phenyl)-1H-benzimidazole hydrochloride], the IC50 worked out at 5.7 nM.
The same measure, in the same setting: in the case of `CC(C)(C)c1cc(-c2nc3cc(-c4c(F)cccc4C(F)(F)F)ccc3[nH]2)on1` [Compound 82, 2-(3-tert-Butyl-isoxazol-5-yl)-5-(2-fluoro-6-trifluoromethyl-phenyl)-1H-benzimidazole hydrochloride] it was 11.6 nM and 1.8 nM.
`Cn1nc2c(c1-c1nc3cc(-c4ccccc4C(F)(F)F)cc(C(F)(F)F)c3[nH]1)CCC21CCCCC1` [Compound 189]: the IC50 worked out at 10.6 nM. Further, the inhibition at 0.2 µM (individually measured values) stood at 99%.
On the same counts, the results for `Cn1nc2c(c1-c1nc3cc(-c4ccccc4F)ccc3[nH]1)CCC2(C)C` [Compound 131] are 42 nM and 100%.
With `Cc1nc(C(C)(C)C)oc1-c1nc2cc(-c3ccccc3C(F)(F)F)cc(C(F)(F)F)c2[nH]1` [Compound 177, 2-(2-tert-Butyl-4-methyl-oxazol-5-yl)-7-trifluoromethyl-5-(2-trifluoromethyl-phenyl)-1H-benzimidazole hydrochloride], where the note is “individually measured values”, the inhibition at 0.2 µM came out at 11%.
On to `Cn1nc(C(C)(C)C)c(Cl)c1-c1nc2cc(-c3ccccc3Cl)cc(C(F)(F)F)c2[nH]1` [Compound 128, 2-(5-tert-Butyl-4-chloro-2-methyl-2H-pyrazol-3-yl)-5-(2-chloro-phenyl)-7-trifluoromethyl-1H-benzimidazole sodium salt], for which the IC50 is 2.7 nM and 5.1 nM. Besides, for the setting “individually measured values”, the inhibition at 0.2 µM was found to be 99%.
Turning to `CC(C)(C)c1ncc(-c2nc3cc(-c4ccccc4C(F)(F)F)ccc3[nH]2)s1` [Compound 100, 2-(2-tert-Butyl-thiazol-5-yl)-5-(2-trifluoromethyl-phenyl)-1H-benzimidazole hydrochloride], the IC50 is 33.7 nM. The inhibition at 0.2 µM (individually measured values) worked out at 91%.
Take `Cc1nc(C(C)(C)C)oc1-c1nc2cc(-c3ccccc3Cl)cc(Cl)c2[nH]1` [Compound 181, 2-(2-tert-Butyl-4-methyl-oxazol-5-yl)-7-chloro-5-(2-chloro-phenyl)-1H-benzimidazole hydrochloride]: the inhibition at 0.2 µM (individually measured values) amounted to 15%.
As for `Cn1nc(C(C)(C)C)c(C#N)c1-c1nc2cc(-c3c(F)cccc3F)cc(Cl)c2[nH]1` [Compound 171, 3-tert-Butyl-5-[7-chloro-5-(2,6-difluoro-phenyl)-1H-benzimidazol-2-yl]-1-methyl-1H-pyrazole-4-carbonitrile sodium salt], the IC50 was found to be 8.2 nM. The inhibition at 0.2 µM (individually measured values) was 100%.
Take `CC(C)Cc1cc(-c2nc3cc(-c4ccccc4C(F)(F)F)ccc3[nH]2)on1` [Compound 22, 2-(3-Isobutylisoxazol-5-yl)-5-(2-trifluoromethylphenyl)-1H-benzimidazole hydrochloride]: the IC50 was 32 nM.
The same measure, in the same setting: in the case of `Cc1c(C(C)(C)C)noc1-c1nc2cc(-c3c(F)cccc3OC(F)(F)F)ccc2[nH]1` [Compound 110, 2-(3-tert-Butyl-4-methyl-isoxazol-5-yl)-5-(2-fluoro-6-trifluoromethoxy-phenyl)-1H-benzimidazole hydrochloride] it was 14.3 nM.
